Legend:
15-LO = molecular target: T1, 15-LO (Glycine max, UniProt P08170); test: Effect on 15-LO catalysed oxidation of arachidonic acid; assay type: biochemical, soybean
T1 construct: purchased Sigma Chemical Company
T1 sequence (P08170 1-839): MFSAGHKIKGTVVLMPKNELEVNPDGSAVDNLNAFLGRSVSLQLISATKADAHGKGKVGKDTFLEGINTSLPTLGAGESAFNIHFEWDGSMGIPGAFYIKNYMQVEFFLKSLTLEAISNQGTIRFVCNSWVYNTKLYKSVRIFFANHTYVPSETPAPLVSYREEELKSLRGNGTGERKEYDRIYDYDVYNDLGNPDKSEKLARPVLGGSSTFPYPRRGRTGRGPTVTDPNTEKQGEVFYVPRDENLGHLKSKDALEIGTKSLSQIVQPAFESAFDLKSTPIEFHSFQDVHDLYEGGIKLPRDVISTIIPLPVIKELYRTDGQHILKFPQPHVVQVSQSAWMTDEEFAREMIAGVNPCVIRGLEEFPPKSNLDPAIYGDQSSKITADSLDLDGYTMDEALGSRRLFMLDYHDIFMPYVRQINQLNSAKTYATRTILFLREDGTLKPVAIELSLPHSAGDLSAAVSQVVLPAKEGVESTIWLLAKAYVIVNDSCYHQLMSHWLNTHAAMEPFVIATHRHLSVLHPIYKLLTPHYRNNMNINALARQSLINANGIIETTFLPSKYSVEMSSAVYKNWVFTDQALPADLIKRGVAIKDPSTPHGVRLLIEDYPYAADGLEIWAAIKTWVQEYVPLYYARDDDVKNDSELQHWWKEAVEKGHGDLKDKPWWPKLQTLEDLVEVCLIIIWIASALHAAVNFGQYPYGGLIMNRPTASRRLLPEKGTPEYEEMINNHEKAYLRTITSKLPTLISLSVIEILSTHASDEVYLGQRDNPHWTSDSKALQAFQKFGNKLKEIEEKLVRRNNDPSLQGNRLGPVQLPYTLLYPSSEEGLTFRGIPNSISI

5-LO = test: Effect on 5-LO catalysed oxidation of arachidonic acid; assay type: biochemical
12-LO = molecular target: T2, 12-LO (Sus scrofa, UniProt P16469); test: Effect on 12-LO catalysed oxidation of arachidonic acid; assay type: biochemical, porcine
T2 construct: purchased Cayman Chemical Company
T2 sequence (P16469 1-663): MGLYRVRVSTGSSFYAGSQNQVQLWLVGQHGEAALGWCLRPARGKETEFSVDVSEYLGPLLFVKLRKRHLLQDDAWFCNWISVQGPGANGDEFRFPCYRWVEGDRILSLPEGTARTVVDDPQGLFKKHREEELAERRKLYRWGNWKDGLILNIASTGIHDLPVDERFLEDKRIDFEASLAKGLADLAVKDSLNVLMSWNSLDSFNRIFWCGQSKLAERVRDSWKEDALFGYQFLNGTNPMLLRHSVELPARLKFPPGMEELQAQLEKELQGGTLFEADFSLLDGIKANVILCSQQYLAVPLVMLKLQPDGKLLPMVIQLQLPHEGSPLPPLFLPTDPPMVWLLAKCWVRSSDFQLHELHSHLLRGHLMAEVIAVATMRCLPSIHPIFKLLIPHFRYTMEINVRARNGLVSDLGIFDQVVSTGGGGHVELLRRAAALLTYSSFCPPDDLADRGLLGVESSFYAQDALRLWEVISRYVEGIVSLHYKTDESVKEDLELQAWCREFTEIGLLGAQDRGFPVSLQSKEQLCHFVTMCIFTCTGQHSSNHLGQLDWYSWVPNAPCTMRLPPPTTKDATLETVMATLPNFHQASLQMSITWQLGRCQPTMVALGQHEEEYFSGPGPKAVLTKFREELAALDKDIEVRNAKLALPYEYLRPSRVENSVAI

human neutrophils [1] = test: Neutrophil degranulation: release of β-glucuronidase; assay type: cell-based; conditions: 20 μg/ml
Method: (§1) The activation of human neutrophils by nitro compounds was assessed by the ability to stimulate superoxide production (chemiluminescence response) and release of lysosomal enzymes from specific and azurophilic granules. Neutrophils were prepared from whole blood taken from normal healthy volunteers by the rapid-single step procedure^(41). Briefly, blood anticoagulated with heparin was carefully layered on a hypaque-ficoll medium of 1.114 g/ml and centrifuged in swing-out-buckets at 200 g/30 min. The leukocytes were resolved into two bands and the erythrocytes sedimented at the bottom of the tube. The second leukocyte band approximately 0.7 cm from the mononuclear cell containing band at the interface contained neutrophils of >98% purity and >99% viability (trypan blue dye exclusion criteria). The neutrophils were carefully harvested with a pasteur pipette, and washed and resuspended in tissue culture medium. The respiratory burst response of neutrophils was assessed by measuring superoxide production by the lucigenin dependent chemiluminescence assay essentially as described previously^(42). Briefly, 1×10^6 neutrophils (100 μl) in HBSS were treated with the nitro analogues of fatty acids (100 μl), then lucigenin was added and the volume made up. […]

human neutrophils [2] = test: Neutrophil degranulation: release of vitamin B12 binding protein; assay type: cell-based; conditions: 20 μg/ml
Method: as §1

human neutrophils [3] = test: AA-enhanced chemiluminescence in human neutrophils; assay type: cell-based; conditions: neutrophils pretreated with compound
Method: Arachidonic acid (AA) is a natural agonist which stimulates oxygen radical production in neutrophils leading to tissue damage during inflammation. Studies were conducted to examine whether or not the Lx compounds could antagonise the effects of AA. Neutrophils were pretreated with Lx compounds and then examined for chemiluminescence response to AA addition. […] The effect of Lx compounds on AA-enhanced chemiluminescence in human neutrophils is shown graphically in FIG. 11.

CCCCC/C=C\C/C=C\C/C=C\C/C=C\CCCC(CCC(=O)O)[N+](=O)[O-] (stereo not drawn) [Lx7, (a11-Z)-4-Nitrotricosa-8,11,14,17-tetraenoic acid]
Effect on 15-LO catalysed oxidation of AA (15-LO): Substrate
Effect on 5-LO catalysed oxidation of AA (5-LO): Activatory
Effect on 12-LO catalysed oxidation of AA (12-LO): Substrate
Release of β-glucuronidase (azurophilic granule marker) (human neutrophils [1]): as potent as 20:4n-6 and 22:6n-3
Release of vitamin B12 binding protein (specific granule marker) (human neutrophils [2]): as potent as 20:4n-6 and 22:6n-3
Inhibition of AA-stimulated oxygen radical production (chemiluminescence) (human neutrophils [3]): particularly evident
